# System: 377384-186-R-J1-PDC complex spheroid viability
# Assay: Anticancer human tumor 377384-186-R-J1-PDC patient-derived pancreatic carcinoma cell line growth inhibition [RAS]
# Conditions: for IC50: curve of first compound; for viability, T/C: stronger effect = lower value
# Summary of the method: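 Agents were tested in combination matrices in half-log decrements from a top concentration at or near clinical Cmax (10 microM if undetermined). Targets were multi-cell spheroids of tumour lines plus HUVEC and MSC stromal cells.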
# 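Also: spheroids exposed to compounds for seven days before readout.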
compound,measurement,setting,value
CC(C)n1nc(-c2ccc3oc(N)nc3c2)c2c(N)ncnc21 + C=CC(=O)N1CCN(c2nc(OCC3CCCN3C)nc3c(F)c(-c4nc(N)cc(C)c4C(F)(F)F)c(Cl)cc23)C(C)C1,IC50,second compound 0.00316 µM,12.2 nM
same,IC50,second compound 0.01 µM,15 nM
same,IC50,second compound 0.0316 µM,15.7 nM
same,IC50,second compound 0.1 µM,11.3 nM
same,IC50,second compound 0.316 µM,12.7 nM
same,IC50,second compound 1 µM,15.2 nM
same,"viability, T/C","second compound 0.00316 µM, first compound 0.000316 µM",93.6%
same,"viability, T/C","second compound 0.00316 µM, first compound 0.001 µM",80.3%
same,"viability, T/C","second compound 0.00316 µM, first compound 0.00316 µM",76%
same,"viability, T/C","second compound 0.00316 µM, first compound 0.01 µM",50.8%
same,"viability, T/C","second compound 0.00316 µM, first compound 0.0316 µM",35.4%
same,"viability, T/C","second compound 0.00316 µM, first compound 0.1 µM",21.1%
same,"viability, T/C","second compound 0.01 µM, first compound 0.000316 µM",87.2%
same,"viability, T/C","second compound 0.01 µM, first compound 0.001 µM",83.1%
same,"viability, T/C","second compound 0.01 µM, first compound 0.00316 µM",68.2%
same,"viability, T/C","second compound 0.01 µM, first compound 0.01 µM",59.4%
same,"viability, T/C","second compound 0.01 µM, first compound 0.0316 µM",36.6%
same,"viability, T/C","second compound 0.01 µM, first compound 0.1 µM",19.9%
same,"viability, T/C","second compound 0.0316 µM, first compound 0.000316 µM",90.5%
same,"viability, T/C","second compound 0.0316 µM, first compound 0.001 µM",76.3%
same,"viability, T/C","second compound 0.0316 µM, first compound 0.00316 µM",64.7%
same,"viability, T/C","second compound 0.0316 µM, first compound 0.01 µM",61.8%
same,"viability, T/C","second compound 0.0316 µM, first compound 0.0316 µM",40%
same,"viability, T/C","second compound 0.0316 µM, first compound 0.1 µM",17.4%
same,"viability, T/C","second compound 0.1 µM, first compound 0.000316 µM",91.5%
same,"viability, T/C","second compound 0.1 µM, first compound 0.001 µM",77.2%
same,"viability, T/C","second compound 0.1 µM, first compound 0.00316 µM",67.4%
same,"viability, T/C","second compound 0.1 µM, first compound 0.01 µM",50.5%
same,"viability, T/C","second compound 0.1 µM, first compound 0.0316 µM",37.9%
same,"viability, T/C","second compound 0.1 µM, first compound 0.1 µM",23.7%
same,"viability, T/C","second compound 0.316 µM, first compound 0.000316 µM",81.3%
same,"viability, T/C","second compound 0.316 µM, first compound 0.001 µM",82.2%
same,"viability, T/C","second compound 0.316 µM, first compound 0.00316 µM",70%
same,"viability, T/C","second compound 0.316 µM, first compound 0.01 µM",48.5%
same,"viability, T/C","second compound 0.316 µM, first compound 0.0316 µM",40%
same,"viability, T/C","second compound 0.316 µM, first compound 0.1 µM",18%
same,"viability, T/C","second compound 1 µM, first compound 0.000316 µM",89.7%
same,"viability, T/C","second compound 1 µM, first compound 0.001 µM",89.2%
same,"viability, T/C","second compound 1 µM, first compound 0.00316 µM",81.7%
same,"viability, T/C","second compound 1 µM, first compound 0.01 µM",55.4%
same,"viability, T/C","second compound 1 µM, first compound 0.0316 µM",37.7%
same,"viability, T/C","second compound 1 µM, first compound 0.1 µM",20.4%
Cc1nc(N2CCC3(CC2)COC(C)C3N)c(CO)nc1Sc1ccnc(N)c1Cl (centres undefined) + CCn1c(-c2cccnc2C(C)OC)c2c3cc(ccc31)N1CCOC(CC(NC(=O)C(C(C)C)N(C)C(=O)C3(F)CCN(C(=O)C#CC(C)(C)N(C)C)CC3)C(=O)N3CCCC(N3)C(=O)OCC(C)(C)C2)C1,IC50,second compound 0.000949 µM,> 10000 nM
same,IC50,second compound 0.003 µM,> 10000 nM
same,IC50,second compound 0.00949 µM,> 10000 nM
same,IC50,second compound 0.03 µM,> 10000 nM
same,IC50,second compound 0.0949 µM,> 10000 nM
same,IC50,second compound 0.3 µM,> 10000 nM
same,"viability, T/C","second compound 0.000949 µM, first compound 0.0316 µM",91.7%
same,"viability, T/C","second compound 0.000949 µM, first compound 0.1 µM",84.8%
same,"viability, T/C","second compound 0.000949 µM, first compound 0.316 µM",78.1%
same,"viability, T/C","second compound 0.000949 µM, first compound 1 µM",83.8%
same,"viability, T/C","second compound 0.000949 µM, first compound 3.16 µM",79.5%
same,"viability, T/C","second compound 0.000949 µM, first compound 10 µM",78.4%
same,"viability, T/C","second compound 0.003 µM, first compound 0.0316 µM",95%
same,"viability, T/C","second compound 0.003 µM, first compound 0.1 µM",97.7%
same,"viability, T/C","second compound 0.003 µM, first compound 0.316 µM",95%
same,"viability, T/C","second compound 0.003 µM, first compound 1 µM",84.7%
same,"viability, T/C","second compound 0.003 µM, first compound 3.16 µM",87.7%
same,"viability, T/C","second compound 0.003 µM, first compound 10 µM",72.6%
same,"viability, T/C","second compound 0.00949 µM, first compound 0.0316 µM",103%
same,"viability, T/C","second compound 0.00949 µM, first compound 0.1 µM",74.7%
same,"viability, T/C","second compound 0.00949 µM, first compound 0.316 µM",74.8%
same,"viability, T/C","second compound 0.00949 µM, first compound 1 µM",75%
same,"viability, T/C","second compound 0.00949 µM, first compound 3.16 µM",90%
same,"viability, T/C","second compound 0.00949 µM, first compound 10 µM",79%
same,"viability, T/C","second compound 0.03 µM, first compound 0.0316 µM",86.2%
same,"viability, T/C","second compound 0.03 µM, first compound 0.1 µM",87.3%
same,"viability, T/C","second compound 0.03 µM, first compound 0.316 µM",91%
same,"viability, T/C","second compound 0.03 µM, first compound 1 µM",79%
same,"viability, T/C","second compound 0.03 µM, first compound 3.16 µM",74.4%
same,"viability, T/C","second compound 0.03 µM, first compound 10 µM",69%
same,"viability, T/C","second compound 0.0949 µM, first compound 0.0316 µM",82.3%
same,"viability, T/C","second compound 0.0949 µM, first compound 0.1 µM",84.8%
same,"viability, T/C","second compound 0.0949 µM, first compound 0.316 µM",70.1%
same,"viability, T/C","second compound 0.0949 µM, first compound 1 µM",63.3%
same,"viability, T/C","second compound 0.0949 µM, first compound 3.16 µM",77.9%
same,"viability, T/C","second compound 0.0949 µM, first compound 10 µM",71.6%
same,"viability, T/C","second compound 0.3 µM, first compound 0.0316 µM",77.2%
same,"viability, T/C","second compound 0.3 µM, first compound 0.1 µM",72%
same,"viability, T/C","second compound 0.3 µM, first compound 0.316 µM",71%
same,"viability, T/C","second compound 0.3 µM, first compound 1 µM",70.9%
same,"viability, T/C","second compound 0.3 µM, first compound 3.16 µM",66.8%
same,"viability, T/C","second compound 0.3 µM, first compound 10 µM",61%

# Source: PubChem BioAssay AID2060903 (Molecular Pharmacology Branch, DTP, NCI, 2025)
